Measured values reported in ChEMBL document CHEMBL1128468, “Amino acid side chain descriptors for quantitative structure-activity relationship studies of peptide analogues” (J Med Chem, 1995).

Molecular target: T1, Oxytocin receptor (Rattus norvegicus, UniProt P70536)
T1 sequence (P70536 whole entry): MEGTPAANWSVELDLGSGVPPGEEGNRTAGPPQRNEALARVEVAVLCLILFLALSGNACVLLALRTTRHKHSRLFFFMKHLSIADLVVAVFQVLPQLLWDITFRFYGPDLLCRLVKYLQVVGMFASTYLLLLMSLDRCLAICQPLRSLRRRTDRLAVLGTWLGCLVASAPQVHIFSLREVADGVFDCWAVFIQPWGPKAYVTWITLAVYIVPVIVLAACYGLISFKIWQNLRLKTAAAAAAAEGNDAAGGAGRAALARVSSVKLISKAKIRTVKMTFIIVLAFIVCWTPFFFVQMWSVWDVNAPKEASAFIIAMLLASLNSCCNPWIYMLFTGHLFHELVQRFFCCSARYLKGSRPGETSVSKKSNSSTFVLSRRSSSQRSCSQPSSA
Assay: Biological activity against Oxytocin receptor in rat

- pA2: 4.95
SMILES: CC[C@H](C)[C@@H]1NC(=O)[C@@H](Cc2c[nH]c3ccccc23)NC(=O)CC2(CCCCC2)SSC[C@@H](C(=O)N2CCC[C@H]2C(=O)N[C@@H](CCCN=C(N)N)C(=O)NCC(N)=O)NC(=O)[C@H](CC(N)=O)NC(=O)[C@@H]([C@H](C)O)NC1=O
